Measured values reported in patent US4309559A, “Sulphonamides useful as pesticides” (FBC Limited, priority 1977, dated 1982).

Columns and labels:
Assay type in all cases: in vivo
[1] = test system: Peas (Pisum sativum); assay: Soil incorporation (attaclay/sand dust), growth regulatory or herbicidal effects, peas; settings: Lathyrus oleraceus, 504 h, soil incorporation 26 ppm, 21 days, 0=no effect, 100=complete kill, read-out: growth regulatory or herbicidal effect score
Method in brief: (§1)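 Dust-formulated compound incorporated in potting compost, 26 or 130 ppm w/v; seeds sown, watered, 21 d at 22° C, 65-85% RH, 14 h/day 13,000 lux. Visual growth-regulatory/herbicidal score 0 (no effect) to 100 (complete kill) vs untreated.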

[2] = test system: Oats (Avena sativa); assay: Soil incorporation (attaclay/sand dust), growth regulatory or herbicidal effects, oats; settings: 504 h, soil incorporation 26 ppm, 21 days, 0=no effect, 100=complete kill, read-out: growth regulatory or herbicidal effect score
Method in brief: as §1

[3] = test system: Barnyardgrass (Echinochloa crus-galli); assay: Pre-emergence soil surface spray, barnyardgrass; settings: soil surface spray 2.8 kg/ha, 21 days, 0=no effect, 100=complete kill
Method in brief: (§2)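 Compounds are applied to the compost surface right after sowing, at 2.8 kg active ingredient per hectare. After 21 days in a controlled environment room at 22° C., any difference from untreated plants is rated visually from 0 (no effect) to 100 (complete kill).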

[4] = test system: Crabgrass (Digitaria sanguinalis); assay: Pre-emergence soil surface spray, crabgrass; settings: soil surface spray 2.8 kg/ha, 21 days, 0=no effect, 100=complete kill
Method in brief: as §2

[5] = test system: Pythium ultimum; assay: Fungal growth on the surface of soil infected with damping-off disease organism; settings: 6 days, 25° C., 0-8 scale

CCCS(=O)(=O)N(c1c(C)cccc1C)C(C)C(=O)OCC (stereo not drawn) [Example 24, N-(1-[ethoxycarbonyl]ethyl)-2',6'-dimethyl-1-propanesulphonanilide]
pest or weed control at 26 µg/mL [1]: 0% | plant injury at 26 µg/mL [2]: 60% | growth regulatory or herbicidal effect score [3]: 80 | growth regulatory or herbicidal effect score [4]: 100 | Mycelial Control Score ([5]; 30 ppm): 0 (<20% inhibition) | Mycelial Control Score ([5]; 100 ppm): 0 (<20% inhibition)
